This note sets out measurements from patent US8569344B2, “N-piperidinyl acetamide derivatives as calcium channel blockers” (Zalicus Pharmaceuticals Ltd., priority 2008, dated 2013).

Test [1] has as its target T1, human α1G T-type channels (Homo sapiens, UniProt O43497).
T1 construct: expressed in transfected cells; host or cells: HEK 293
As to the kind of experiment: T-type calcium channel block, whole cell patch clamp in HEK cells (α1G). Type of test: cell-based. Conditions: HEK cells, patch clamp, mainly non-inactivated protocol; values above 10 μM shown as 10 μM, below 0.30 μM shown as 0.30 μM; read-out: T-type Calcium Channel Block α1G IC50.

In test [2] the target is T2, human α1H T-type channels (Homo sapiens, UniProt O95180).
T2 construct: expressed in transfected cells; host or cells: HEK 293
As to the kind of experiment: T-type calcium channel block, whole cell patch clamp in HEK cells (α1H). In kind it is cell-based. Conditions: HEK cells, patch clamp, mainly non-inactivated protocol; values above 10 μM shown as 10 μM; read-out: T-type Calcium Channel Block α1H IC50.

Bounds are passed on as bounds.

T2 sequence (O95180 whole entry): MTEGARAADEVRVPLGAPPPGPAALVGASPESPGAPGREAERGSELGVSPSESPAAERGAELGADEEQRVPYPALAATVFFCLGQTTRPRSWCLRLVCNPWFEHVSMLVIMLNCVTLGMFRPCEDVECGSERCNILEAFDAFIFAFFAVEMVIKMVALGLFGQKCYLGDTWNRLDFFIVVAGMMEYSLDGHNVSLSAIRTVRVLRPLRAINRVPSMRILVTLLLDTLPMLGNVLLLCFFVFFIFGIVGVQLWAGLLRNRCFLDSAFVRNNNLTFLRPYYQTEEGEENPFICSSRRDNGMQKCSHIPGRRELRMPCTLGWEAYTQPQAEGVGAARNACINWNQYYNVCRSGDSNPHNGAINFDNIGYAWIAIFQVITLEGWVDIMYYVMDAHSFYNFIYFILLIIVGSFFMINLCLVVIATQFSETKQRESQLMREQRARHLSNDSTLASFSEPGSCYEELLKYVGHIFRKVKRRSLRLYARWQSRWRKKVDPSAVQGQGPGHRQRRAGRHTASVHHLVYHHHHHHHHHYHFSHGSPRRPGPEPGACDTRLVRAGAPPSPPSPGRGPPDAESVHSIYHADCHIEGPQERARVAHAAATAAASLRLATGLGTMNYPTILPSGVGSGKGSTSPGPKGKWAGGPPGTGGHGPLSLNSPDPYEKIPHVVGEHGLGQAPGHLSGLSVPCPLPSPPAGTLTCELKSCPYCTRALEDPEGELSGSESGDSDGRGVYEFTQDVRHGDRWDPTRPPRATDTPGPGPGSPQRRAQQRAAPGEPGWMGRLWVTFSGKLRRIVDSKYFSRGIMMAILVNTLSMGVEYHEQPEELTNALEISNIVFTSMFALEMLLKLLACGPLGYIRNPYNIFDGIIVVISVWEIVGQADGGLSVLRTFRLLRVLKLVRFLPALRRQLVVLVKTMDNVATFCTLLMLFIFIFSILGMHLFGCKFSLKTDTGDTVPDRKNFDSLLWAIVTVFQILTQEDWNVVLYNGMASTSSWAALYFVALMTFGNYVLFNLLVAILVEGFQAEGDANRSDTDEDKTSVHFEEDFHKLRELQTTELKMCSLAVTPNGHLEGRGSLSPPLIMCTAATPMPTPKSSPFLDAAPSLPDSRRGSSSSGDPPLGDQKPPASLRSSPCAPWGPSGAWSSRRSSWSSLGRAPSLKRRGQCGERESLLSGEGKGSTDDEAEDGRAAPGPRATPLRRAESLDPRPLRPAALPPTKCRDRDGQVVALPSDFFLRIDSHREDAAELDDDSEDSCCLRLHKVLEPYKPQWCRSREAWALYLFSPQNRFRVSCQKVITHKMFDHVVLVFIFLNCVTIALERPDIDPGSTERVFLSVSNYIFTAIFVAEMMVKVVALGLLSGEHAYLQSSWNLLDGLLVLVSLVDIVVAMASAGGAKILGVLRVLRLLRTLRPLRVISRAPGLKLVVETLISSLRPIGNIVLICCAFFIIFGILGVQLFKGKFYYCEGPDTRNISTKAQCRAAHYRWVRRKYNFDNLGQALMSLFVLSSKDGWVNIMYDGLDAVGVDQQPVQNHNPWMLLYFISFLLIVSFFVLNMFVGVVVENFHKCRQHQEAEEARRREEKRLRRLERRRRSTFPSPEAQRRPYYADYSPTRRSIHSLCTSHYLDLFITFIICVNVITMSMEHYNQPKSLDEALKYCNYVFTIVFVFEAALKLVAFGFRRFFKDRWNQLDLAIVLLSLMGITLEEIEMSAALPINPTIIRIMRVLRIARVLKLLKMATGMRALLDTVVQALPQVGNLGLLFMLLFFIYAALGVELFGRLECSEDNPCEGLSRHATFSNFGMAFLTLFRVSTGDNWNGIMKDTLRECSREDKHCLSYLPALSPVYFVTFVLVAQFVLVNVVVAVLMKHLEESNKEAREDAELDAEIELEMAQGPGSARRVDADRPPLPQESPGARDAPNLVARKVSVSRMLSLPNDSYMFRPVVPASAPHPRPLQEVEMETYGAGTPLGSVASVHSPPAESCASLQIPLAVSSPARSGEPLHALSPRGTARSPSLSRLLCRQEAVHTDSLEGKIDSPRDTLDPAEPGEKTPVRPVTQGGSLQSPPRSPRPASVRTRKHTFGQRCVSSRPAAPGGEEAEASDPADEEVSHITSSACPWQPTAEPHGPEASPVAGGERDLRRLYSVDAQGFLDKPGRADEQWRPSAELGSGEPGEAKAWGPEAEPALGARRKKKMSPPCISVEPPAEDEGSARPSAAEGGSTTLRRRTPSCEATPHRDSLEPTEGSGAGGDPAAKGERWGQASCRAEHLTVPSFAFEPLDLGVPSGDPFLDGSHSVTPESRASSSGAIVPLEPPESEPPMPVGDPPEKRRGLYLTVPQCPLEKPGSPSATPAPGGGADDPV
T1 sequence (O43497 whole entry): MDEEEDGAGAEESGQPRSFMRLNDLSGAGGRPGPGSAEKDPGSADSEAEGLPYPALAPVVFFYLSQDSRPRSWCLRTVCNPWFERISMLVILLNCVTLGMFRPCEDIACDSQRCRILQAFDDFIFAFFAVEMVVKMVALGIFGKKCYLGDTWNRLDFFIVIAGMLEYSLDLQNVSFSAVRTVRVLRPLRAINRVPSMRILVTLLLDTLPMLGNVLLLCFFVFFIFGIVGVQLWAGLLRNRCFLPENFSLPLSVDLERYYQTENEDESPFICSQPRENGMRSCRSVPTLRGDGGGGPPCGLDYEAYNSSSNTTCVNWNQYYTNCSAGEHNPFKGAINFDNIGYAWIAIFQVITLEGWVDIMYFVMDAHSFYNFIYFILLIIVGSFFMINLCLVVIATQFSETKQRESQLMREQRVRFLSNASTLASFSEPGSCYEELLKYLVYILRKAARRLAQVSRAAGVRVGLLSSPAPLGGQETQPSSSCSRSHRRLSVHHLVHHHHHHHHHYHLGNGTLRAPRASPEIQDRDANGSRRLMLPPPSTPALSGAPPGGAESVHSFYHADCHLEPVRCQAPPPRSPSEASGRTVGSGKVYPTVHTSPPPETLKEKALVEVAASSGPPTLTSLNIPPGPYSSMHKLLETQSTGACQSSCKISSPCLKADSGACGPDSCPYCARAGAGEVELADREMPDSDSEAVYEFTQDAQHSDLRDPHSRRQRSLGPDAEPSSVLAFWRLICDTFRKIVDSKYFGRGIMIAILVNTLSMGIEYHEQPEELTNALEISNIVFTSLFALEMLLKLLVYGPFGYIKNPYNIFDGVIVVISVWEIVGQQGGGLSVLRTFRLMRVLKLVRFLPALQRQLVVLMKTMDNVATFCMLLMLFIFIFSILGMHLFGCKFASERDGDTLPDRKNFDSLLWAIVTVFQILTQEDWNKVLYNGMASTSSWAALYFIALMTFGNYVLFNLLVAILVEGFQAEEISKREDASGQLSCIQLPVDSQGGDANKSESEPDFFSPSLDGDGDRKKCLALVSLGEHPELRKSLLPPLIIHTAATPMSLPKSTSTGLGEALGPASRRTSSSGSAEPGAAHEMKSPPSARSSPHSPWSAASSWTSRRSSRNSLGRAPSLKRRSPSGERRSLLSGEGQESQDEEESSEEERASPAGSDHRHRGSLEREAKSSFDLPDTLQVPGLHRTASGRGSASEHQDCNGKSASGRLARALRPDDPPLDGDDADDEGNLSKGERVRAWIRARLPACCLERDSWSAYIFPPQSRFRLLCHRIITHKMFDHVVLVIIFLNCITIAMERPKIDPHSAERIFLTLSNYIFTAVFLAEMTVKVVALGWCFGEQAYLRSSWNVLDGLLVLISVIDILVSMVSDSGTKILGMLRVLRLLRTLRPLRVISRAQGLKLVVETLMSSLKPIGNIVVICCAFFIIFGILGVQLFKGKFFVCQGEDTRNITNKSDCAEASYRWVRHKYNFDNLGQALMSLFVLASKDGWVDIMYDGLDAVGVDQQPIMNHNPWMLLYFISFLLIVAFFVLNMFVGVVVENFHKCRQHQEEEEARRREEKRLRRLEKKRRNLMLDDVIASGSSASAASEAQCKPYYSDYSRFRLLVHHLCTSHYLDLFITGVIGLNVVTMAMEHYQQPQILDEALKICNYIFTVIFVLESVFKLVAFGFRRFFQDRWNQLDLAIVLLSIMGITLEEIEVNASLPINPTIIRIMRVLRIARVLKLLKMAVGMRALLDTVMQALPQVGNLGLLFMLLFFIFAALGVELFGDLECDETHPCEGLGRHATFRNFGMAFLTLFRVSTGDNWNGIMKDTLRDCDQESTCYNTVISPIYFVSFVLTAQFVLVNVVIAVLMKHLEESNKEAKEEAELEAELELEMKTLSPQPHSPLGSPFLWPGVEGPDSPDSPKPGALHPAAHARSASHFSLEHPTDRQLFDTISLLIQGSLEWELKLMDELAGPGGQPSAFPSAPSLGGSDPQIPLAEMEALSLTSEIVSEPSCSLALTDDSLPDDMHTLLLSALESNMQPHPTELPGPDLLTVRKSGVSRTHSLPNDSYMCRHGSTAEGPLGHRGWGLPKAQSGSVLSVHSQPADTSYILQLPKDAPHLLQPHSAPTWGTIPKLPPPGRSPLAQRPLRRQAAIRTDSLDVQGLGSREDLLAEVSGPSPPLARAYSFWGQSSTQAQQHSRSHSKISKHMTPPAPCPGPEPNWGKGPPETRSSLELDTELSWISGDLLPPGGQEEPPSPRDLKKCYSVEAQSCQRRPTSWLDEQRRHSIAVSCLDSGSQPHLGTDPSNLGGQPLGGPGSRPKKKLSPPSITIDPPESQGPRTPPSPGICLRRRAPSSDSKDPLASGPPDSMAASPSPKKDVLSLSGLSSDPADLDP

What is called IC50 is the concentration at which inhibition is half-maximal. Consider `O=C(NCC1CCN(C(=O)CN2CCCC(C(F)(F)F)C2)CC1)c1cc(F)cc(C(F)(F)F)c1` (centres unmarked) [Compound 282, 3-fluoro-5-(trifluoromethyl)-N-((1-(2-(3-(trifluoromethyl)piperidin-1-yl)acetyl)piperidin-4-yl)methyl)benzamide], for which the values for the IC50 in test [1] and in test [2] were 2.5 µM and 7.16 µM, respectively.

For the compound `CC(C)(C(=O)NCCN1CCC(CNC(=O)c2cccc(Cl)c2)CC1)C(F)(F)F` [Compound 494, 3-chloro-N-((1-(2-(3,3,3-trifluoro-2,2-dimethylpropanamido)ethyl)piperidin-4-yl)methyl)benzamide], the figures for the IC50 in test [1] and in test [2] were below 0.3 µM and 0.16 µM, respectively.

Turning to `CCOC(=O)NC(CN1CCC(CC(=O)NCc2cc(Cl)cc(Cl)c2)CC1)C(C)(C)C` (centres unmarked) [Compound 224, ethyl 1-(4-(2-(3,5-dichlorobenzyl-amino)-2-oxoethyl)piperidin-1-yl)-3,3-dimethylbutan-2-ylcarbamate], the IC50 came to 3.76 µM in test [1] and 6.19 µM in test [2].

As for `CC(C)(C)OC(=O)NCCN1CCC(CNC(=O)c2cc(F)cc(F)c2)CC1` [Compound 47, tert-butyl 2-(4-((3,5-difluorobenzamido)methyl)piperidin-1-yl)ethylcarbamate], the half-maximal inhibitory concentration (IC50) in test [1] is 3.11 µM; in test [2], 0.88 µM.

Take `COc1cc(F)cc(C(=O)NCC2CCN(CC(=O)NC(C)(C)C(F)(F)F)CC2)c1` [Compound 456, 3-fluoro-5-methoxy-N-((1-(2-oxo-2-(1,1,1-trifluoro-2-methylpropan-2-ylamino)ethyl)piperidin-4-yl)methyl)benzamide]: the IC50 in test [1] was below 0.3 µM; in test [2], 0.02 µM.

`CCCCCNCC(=O)N1CCC(CNC(=O)c2cc(C(F)(F)F)cc(C(F)(F)F)c2)CC1` [Compound 241, N-((1-(2-(pentylamino)acetyl)piperidin-4-yl)methyl)-3,5-bis(trifluoromethyl)benzamide]: the concentration for half-maximal inhibition (IC50) was below 0.3 µM in test [1] and 0.52 µM in test [2].

Turning to `COc1cc(Cl)cc(C(=O)NCC2CCN(CCNS(=O)(=O)C(C)C)CC2)c1` [Compound 320, 3-chloro-5-methoxy-N-((1-(2-(1-methylethylsulfonamido)ethyl)piperidin-4-yl)methyl)benzamide], the figures for the IC50 in test [1] and in test [2] were 0.76 µM and 1.62 µM, respectively.

Take `Cc1cc(F)cc(C(=O)NCC2CCN(CC(=O)NC(C)C)CC2)c1` [Compound 437, 3-fluoro-N-((1-(2-(isopropylamino)-2-oxoethyl)piperidin-4-yl)methyl)-5-methylbenzamide]: the half-inhibitory concentration (IC50) in test [1] and in test [2] was above 10 µM throughout.

As to `COC(=O)NC1(CN2CCC(CNC(=O)c3cc(C(F)(F)F)cc(C(F)(F)F)c3)CC2)CCCC1` [Compound 16, methyl 1-((4-((3,5-bis(trifluoromethyl)benzamido)methyl)piperidin-1-yl)methyl)cyclopentyl-carbamate], the IC50 in test [1] is below 0.3 µM; in test [2] it was 0.19 µM.

For the compound `O=C(NCC1CCN(CCNC(=O)C2(C(F)(F)F)CCC2)CC1)c1cc(F)cc(C(F)(F)F)c1` [Compound 435, 3-fluoro-5-(trifluoromethyl)-N-((1-(2-(1-(trifluoromethyl)cyclobutanecarboxamido)ethyl)piperidin-4-yl)methyl)benzamide], the concentration for half-maximal inhibition (IC50) in test [1] is below 0.3 µM; in test [2], 0.09 µM.

For the compound `O=C(NCC1CCN(CC2(NS(=O)(=O)C3CC3)CCCC2)CC1)c1cc(C(F)(F)F)cc(C(F)(F)F)c1` [Compound 2, N-((1-((1-(cyclopropanesulfonamido)cyclopentyl)methyl)piperidin-4-yl)methyl)-3,5-bis(trifluoromethyl)benzamide], the results for the half-inhibitory concentration (IC50) in test [1] and in test [2] were below 0.3 µM and 0.54 µM, respectively.

In the case of `COc1cc(C(=O)NCC2CCN(CCNC(=O)CCC(F)(F)F)CC2)cc(C(F)(F)F)c1` [Compound 317, 3-methoxy-N-((1-(2-(4,4,4-trifluorobutanamido)ethyl)piperidin-4-yl)methyl)-5-(trifluoromethyl)benzamide], the IC50 worked out at 0.66 µM in test [1] and 0.56 µM in test [2].

In the case of `O=C(NCC1CCN(CCNS(=O)(=O)C2CC2)CC1)c1cccc(OC(F)(F)F)c1` [Compound 234, N-((1-(2-(cyclopropanesulfonamido)ethyl)piperidin-4-yl)methyl)-3-(trifluoromethoxy)benzamide], the IC50 in test [1] was found to be 1.45 µM; in test [2], 0.97 µM.

In the case of `O=C(NCC1CCN(CC(=O)N2CC[C@H](C(F)(F)F)C2)CC1)c1cc(F)cc(C(F)(F)F)c1` [Compound 355, (S)-3-fluoro-N-((1-(2-oxo-2-(3-(trifluoromethyl)pyrrolidin-1-yl)ethyl)piperidin-4-yl)methyl)-5-(trifluoromethyl)benzamide], the IC50 in test [1] is below 0.3 µM; in test [2] it was 0.16 µM.

Take `CC(C(=O)NC1CCCC1)N1CCC(CNC(=O)c2cc(F)cc(Cl)c2)CC1` (centres unmarked) [Compound 549, 3-chloro-N-((1-(1-(cyclopentylamino)-1-oxopropan-2-yl)piperidin-4-yl)methyl)-5-fluorobenzamide]: the IC50 in test [1] was below 0.3 µM; in test [2], 0.11 µM.

For `O=C(CC1CCN(C(=O)[C@@H]2CCCCN2)CC1)Nc1cc(C(F)(F)F)cc(C(F)(F)F)c1` [Compound 195, (S)-N-(3,5-bis(trifluoromethyl)phenyl)-2-(1-(piperidine-2-carbonyl)piperidin-4-yl)acetamide], the half-maximal inhibitory concentration (IC50) in test [1] is 4.78 µM; in test [2] it was 1.97 µM.

For `CC(C)(C)OC(=O)NCCN1CCC(CNC(=O)c2cc(C(C)(C)C)cc(C(C)(C)C)c2)CC1` [Compound 49, tert-butyl 2-(4-((3,5-di-tert-butylbenzamido)methyl)piperidin-1-yl)ethylcarbamate], the figures for the IC50 in test [1] and in test [2] were 0.34 µM and 7.3 µM, respectively.

As to `CC(C)NC(=O)NC1(CN2CCC(CNC(=O)c3cc(C(F)(F)F)cc(C(F)(F)F)c3)CC2)CCCC1` [Compound 15, N-((1-((1-(3-isopropylureido)cyclopentyl)methyl)piperidin-4-yl)methyl)-3,5-bis(trifluoromethyl)benzamide], the IC50 in test [1] stood at 1.03 µM; in test [2], 3.04 µM.

Regarding `O=C(NCC1CCN(CCNC(=O)C2(C(F)(F)F)CC2)CC1)c1cc(C(F)(F)F)cc(C(F)(F)F)c1` [Compound 342, 3,5-bis(trifluoromethyl)-N-((1-(2-(1-(trifluoromethyl)cyclopropanecarbox-amido)ethyl)piperidin-4-yl)methyl) benzamide], the 50% inhibitory concentration (IC50) in test [1] is below 0.3 µM; in test [2] it was 0.07 µM.

Regarding `COC1CCN(CC(=O)N2CCC(CNC(=O)c3cc(C(F)(F)F)cc(C(F)(F)F)c3)CC2)CC1` [Compound 251, N-((1-(2-(4-methoxypiperidin-1-yl)acetyl)piperidin-4-yl)methyl)-3,5-bis(trifluoromethyl)benzamide], the IC50 in test [1] and in test [2] was above 10 µM throughout.

Regarding `CC(C)(C)C(=O)NCCN1CCC(CNC(=O)c2cc(F)cc(F)c2)CC1` [Compound 293, 3,5-difluoro-N-((1-(2-pivalamidoethyl)piperidin-4-yl)methyl)benzamide], the IC50 in test [1] was found to be 5.18 µM; in test [2], 4.07 µM.

In the case of `CC(C)(C)C(O)CN1CCC(CC(=O)Nc2cc(F)cc(C(F)(F)F)c2)CC1` (centres unmarked) [Compound 169, N-(3-fluoro-5-(trifluoromethyl)phenyl)-2-(1-(2-hydroxy-3,3-dimethylbutyl)piperidin-4-yl)acetamide], the IC50 is below 0.3 µM in test [1] and 0.23 µM in test [2].
